Reference: ChEMBL document CHEMBL5620403, “Design, synthesis, activity and molecular dynamics studies of 1,3,4-thiadiazole derivatives as selective allosteric inhibitors of SHP2 for the treatment of cancer” (Eur J Med Chem, 2023)
Active and inactive are the calls of the source. The rule behind the calls is not given here.

Legend:
[1] = target: Tyrosine-protein phosphatase non-receptor type 11 (Homo sapiens, UniProt Q06124, E76K); experiment: Inhibition of full length recombinant human SHP2 E76K mutant (1 to 525 residues) using DIPMUP as substrate preincubated for 30 mins followed by substrate addition and measured after 30 mins by fluorescence based analysis
MV4-11 [2] = experiment: Induction of apoptosis in human MV4-11 cells assessed as late apoptotic cells at 1.25 uM measured after 4 hrs by Annexin V-FITC/7-AAD staining based flow cytometric analysis (reference value: 1.58%); assay type: functional
MV4-11 [3] = experiment: Induction of apoptosis in human MV4-11 cells assessed as necrotic cells at 2.5 uM measured after 4 hrs by Annexin V-FITC/7-AAD staining based flow cytometric analysis (reference value: 0.041%); assay type: functional
[4] = target: Tyrosine-protein phosphatase non-receptor type 6 (Homo sapiens, UniProt P29350); experiment: Inhibition of full length recombinant human SHP1 (1 to 570 residues) using DIPMUP as substrate preincubated for 30 mins followed by substrate addition and measured after 30 mins by fluorescence based analysis
MV4-11 [5] = experiment: Induction of apoptosis in human MV4-11 cells assessed as viable cells at 1.25 uM measured after 4 hrs by Annexin V-FITC/7-AAD staining based flow cytometric analysis (reference value: 95.9%); assay type: functional; details: read-out: Activity
MV4-11 [6] = experiment: Induction of apoptosis in human MV4-11 cells assessed as late apoptotic cells at 5 uM measured after 4 hrs by Annexin V-FITC/7-AAD staining based flow cytometric analysis (reference value: 1.58%); assay type: functional
MV4-11 [7] = experiment: Induction of apoptosis in human MV4-11 cells assessed as viable cells at 5 uM measured after 4 hrs by Annexin V-FITC/7-AAD staining based flow cytometric analysis (reference value: 95.9%); assay type: functional; details: read-out: Activity
MV4-11 [8] = experiment: Induction of apoptosis in human MV4-11 cells assessed as necrotic cells at 5 uM measured after 1 hrs by Annexin V-FITC/7-AAD staining based flow cytometric analysis (reference value: 0.068%); assay type: functional
MV4-11 [9] = experiment: Induction of apoptosis in human MV4-11 cells assessed as viable cells at 5 uM measured after 2 hrs by Annexin V-FITC/7-AAD staining based flow cytometric analysis (reference value: 96.8%); assay type: functional; details: read-out: Activity
MV4-11 [10] = experiment: Induction of apoptosis in human MV4-11 cells assessed as late apoptotic cells at 5 uM measured after 1 hrs by Annexin V-FITC/7-AAD staining based flow cytometric analysis (reference value: 0.98%); assay type: functional
[11] = target: T1, Tyrosine-protein phosphatase non-receptor type 11 (Homo sapiens, UniProt Q06124); experiment: Inhibition of full length wild type recombinant human SHP2 (1 to 525 residues) using DIPMUP as substrate preincubated for 30 mins followed by substrate addition and measured after 30 mins by fluorescence based analysis
T1 sequence (Q06124 whole entry): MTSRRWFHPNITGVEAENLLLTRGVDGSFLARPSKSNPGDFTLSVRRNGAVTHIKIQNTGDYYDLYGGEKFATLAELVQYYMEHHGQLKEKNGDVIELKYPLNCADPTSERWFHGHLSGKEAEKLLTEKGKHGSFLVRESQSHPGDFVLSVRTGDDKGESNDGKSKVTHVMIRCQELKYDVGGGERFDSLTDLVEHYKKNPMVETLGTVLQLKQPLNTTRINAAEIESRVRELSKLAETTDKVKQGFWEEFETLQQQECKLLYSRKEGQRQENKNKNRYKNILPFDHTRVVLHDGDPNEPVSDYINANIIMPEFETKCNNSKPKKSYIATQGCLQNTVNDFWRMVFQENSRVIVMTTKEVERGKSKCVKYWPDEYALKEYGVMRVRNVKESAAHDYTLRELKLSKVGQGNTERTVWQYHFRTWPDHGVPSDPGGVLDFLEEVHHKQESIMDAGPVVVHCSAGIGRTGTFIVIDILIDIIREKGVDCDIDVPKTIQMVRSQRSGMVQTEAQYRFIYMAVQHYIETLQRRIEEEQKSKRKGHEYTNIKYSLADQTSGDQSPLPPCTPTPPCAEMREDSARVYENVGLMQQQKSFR

[12] = Inhibition of full length recombinant human SHP2 E76A mutant (1 to 525 residues) using DIPMUP as substrate preincubated for 30 mins followed by substrate addition and measured after 30 mins by fluorescence based analysis
[13] = target: T1, Tyrosine-protein phosphatase non-receptor type 11; experiment: Inhibition of recombinant human SHP2 PTPase activity (219 to 525 residues) using DIPMUP as substrate preincubated for 30 mins followed by substrate addition and measured after 30 mins by fluorescence based analysis
MV4-11 [14] = experiment: Induction of apoptosis in human MV4-11 cells assessed as viable cells at 2.5 uM measured after 4 hrs by Annexin V-FITC/7-AAD staining based flow cytometric analysis (reference value: 95.9%); assay type: functional; details: read-out: Activity
MV4-11 [15] = experiment: Induction of apoptosis in human MV4-11 cells assessed as early apoptotic cells at 5 uM measured after 2 hrs by Annexin V-FITC/7-AAD staining based flow cytometric analysis (reference value: 2.13%); assay type: functional
MDA-MB-468 = experiment: Antiproliferative activity against human MDA-MB-468 cells assessed as inhibition of cell growth measured after 72 hrs by CCK8 method; assay type: functional, cell-based; details: MDA-MB-468, 72 h
MV4-11 [16] = experiment: Induction of apoptosis in human MV4-11 cells assessed as viable cells at 5 uM measured after 1 hrs by Annexin V-FITC/7-AAD staining based flow cytometric analysis (reference value: 96.8%); assay type: functional; details: read-out: Activity
MV4-11 [17] = experiment: Induction of apoptosis in human MV4-11 cells assessed as late apoptotic cells at 2.5 uM measured after 4 hrs by Annexin V-FITC/7-AAD staining based flow cytometric analysis (reference value: 1.58%); assay type: functional
[18] = target: T2, Tyrosine-protein phosphatase non-receptor type 11 (Homo sapiens) (UniProt Q06124); experiment: Inhibition of SHP2 in human MV4-11 cells assessed as reduction in Erk1/2 phosphorylation level at upto 20 uM measured after 4 hrs by Western blot analysis; assay type: cell-based
T2 sequence (whole entry): T1 sequence (Q06124 whole entry)

MV4-11 [19] = experiment: Induction of apoptosis in human MV4-11 cells assessed as early apoptotic cells at 2.5 uM measured after 4 hrs by Annexin V-FITC/7-AAD staining based flow cytometric analysis (reference value: 2.48%); assay type: functional
A549 = experiment: Antiproliferative activity against human A549 cells assessed as inhibition of cell growth measured after 72 hrs by CCK8 method; assay type: functional, cell-based; details: A549, 72 h
NCI-H358 = experiment: Antiproliferative activity against human NCI-H358 cells assessed as inhibition of cell growth measured after 72 hrs by CCK8 method; assay type: functional, cell-based; details: NCI-H358, 72 h
MV4-11 [20] = experiment: Induction of apoptosis in human MV4-11 cells assessed as late apoptotic cells at 5 uM measured after 2 hrs by Annexin V-FITC/7-AAD staining based flow cytometric analysis (reference value: 0.98%); assay type: functional
MV4-11 [21] = experiment: Induction of apoptosis in human MV4-11 cells assessed as necrotic cells at 1.25 uM measured after 4 hrs by Annexin V-FITC/7-AAD staining based flow cytometric analysis (reference value: 0.041%); assay type: functional
MV4-11 [22] = experiment: Antiproliferative activity against human MV4-11 cells assessed as inhibition of cell growth measured after 72 hrs by CCK8 method; assay type: functional, cell-based; details: MV4-11, 72 h
[23] = target: T2, Tyrosine-protein phosphatase non-receptor type 11 (Homo sapiens); experiment: Inhibition of SHP2 in human NCI-H358 cells assessed as reduction in Akt phosphorylation level at upto 20 uM measured after 8 hrs by Western blot analysis; assay type: cell-based

Tyrosine-protein phosphatase non-receptor type 11 (Homo sapiens, UniProt Q06124, E76K), sequence (Q06124 2-593 E76K limits assumed): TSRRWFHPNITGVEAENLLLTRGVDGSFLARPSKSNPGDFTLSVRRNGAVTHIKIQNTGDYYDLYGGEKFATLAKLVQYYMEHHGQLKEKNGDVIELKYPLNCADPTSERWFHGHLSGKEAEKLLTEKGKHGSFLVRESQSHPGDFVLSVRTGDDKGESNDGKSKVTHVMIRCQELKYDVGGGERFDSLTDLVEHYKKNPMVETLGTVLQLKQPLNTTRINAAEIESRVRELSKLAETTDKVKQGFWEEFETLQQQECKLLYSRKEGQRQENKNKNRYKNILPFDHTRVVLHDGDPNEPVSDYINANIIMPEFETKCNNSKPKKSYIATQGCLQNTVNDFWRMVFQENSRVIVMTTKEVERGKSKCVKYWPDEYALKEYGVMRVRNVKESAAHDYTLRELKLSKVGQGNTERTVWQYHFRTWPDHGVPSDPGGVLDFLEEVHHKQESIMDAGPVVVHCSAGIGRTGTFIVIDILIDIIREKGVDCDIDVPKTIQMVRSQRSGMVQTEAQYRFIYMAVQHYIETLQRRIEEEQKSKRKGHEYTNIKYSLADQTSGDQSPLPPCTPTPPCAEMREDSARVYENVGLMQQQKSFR
Tyrosine-protein phosphatase non-receptor type 6, sequence (P29350 whole entry, the tested form may be a part): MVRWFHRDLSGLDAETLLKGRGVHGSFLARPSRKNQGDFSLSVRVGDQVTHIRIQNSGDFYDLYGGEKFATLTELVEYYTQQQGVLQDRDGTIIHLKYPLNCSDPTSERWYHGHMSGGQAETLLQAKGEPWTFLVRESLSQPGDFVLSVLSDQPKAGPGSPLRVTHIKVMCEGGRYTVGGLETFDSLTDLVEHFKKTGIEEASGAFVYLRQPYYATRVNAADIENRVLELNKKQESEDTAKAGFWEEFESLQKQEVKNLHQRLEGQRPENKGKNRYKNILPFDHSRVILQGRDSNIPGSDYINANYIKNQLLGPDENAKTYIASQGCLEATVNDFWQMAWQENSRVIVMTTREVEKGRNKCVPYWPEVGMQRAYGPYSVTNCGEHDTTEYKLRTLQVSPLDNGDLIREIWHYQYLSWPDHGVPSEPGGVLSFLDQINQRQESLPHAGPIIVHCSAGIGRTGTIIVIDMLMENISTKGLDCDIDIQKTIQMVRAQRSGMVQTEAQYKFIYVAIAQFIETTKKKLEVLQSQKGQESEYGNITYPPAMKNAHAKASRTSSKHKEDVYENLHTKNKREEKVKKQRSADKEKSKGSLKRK

C[C@@H]1OCC2(CCN(c3nnc(Sc4cccc(Cl)c4Cl)s3)CC2)[C@@H]1N
IC50 [1]: 6.88 µM | Activity (MV4-11 [2]): 1.93% | Activity (MV4-11 [3]): 0.076% | IC50 [4]: > 50 µM | viability at 1.25 µM (MV4-11 [5]): 95.9% | Activity (MV4-11 [6]): 5.98% | viability at 5 µM (MV4-11 [7]): 84.1% | Activity (MV4-11 [8]): 0.91% | viability at 5 µM (MV4-11 [9]): 80.9% | Activity (MV4-11 [10]): 4.39% | IC50 [11]: 840 nM | IC50 [12]: 1380 nM | IC50 [13]: > 50 µM | viability at 2.5 µM (MV4-11 [14]): 96.7% | Activity (MV4-11 [15]): 10.9% | IC50 (MDA-MB-468): 14.6 µM | viability at 5 µM (MV4-11 [16]): 90% | Activity (MV4-11 [17]): 2.3% | inhibition [18]: Active | Activity (MV4-11 [19]): 2.09% | IC50 (A549): 12.1 µM | IC50 (NCI-H358): 12 µM | Activity (MV4-11 [20]): 7.03% | Activity (MV4-11 [21]): 0.12% | IC50 (MV4-11 [22]): 3.85 µM | inhibition [23]: Active
